Data on one compound can be found in ChEMBL document CHEMBL4190257, “Discovery of phenylsulfonyl acetic acid derivatives with improved efficacy and safety as potent free fatty acid receptor 1 agonists for the treatment of type 2 diabetes” (Eur J Med Chem, 2017).

One may read the EC50 as the concentration at which the effect is half-maximal. The logD is lipophilicity at a set pH, counting ionised and neutral species. A low value points to a more hydrophilic compound. For orientation: CL/F means clearance divided by bioavailability, as obtained after extravascular dosing. In general, Cmax refers to the peak of the concentration-time curve. One may read the AUC(0-t) as the area under the concentration-time curve up to a stated or last time point. By half-life is commonly meant how long it takes for the measured level to halve. The low end stands for fast loss, the high end for slow loss.

Data set [1] has as its target T1, Free fatty acid receptor 1 (Homo sapiens, UniProt O14842). Description: Agonist activity at human FFA1 receptor expressed in CHO cells assessed as increase in intracellular calcium flux by Fluo 4AM dye-based FLIPR assay. It counts as functional, cell-based. For orientation: Calcium flux is commonly read through the fluorescence of an indicator in the cells.
The target of data set [2] is T1, Free fatty acid receptor 1. Kind of data set: Agonist activity at human FFA1 receptor expressed in CHO cells assessed as increase in intracellular calcium flux at 10 uM by Fluo 4AM dye-based FLIPR assay relative to TAK-875. In kind it is functional, cell-based.
The nature of data set [3]: Octanol/phosphate buffer distribution coefficient, log D of the compound at 100 uM at pH 7.4 after 24 hrs by shake flask method. It counts as physicochemical.
Data set [4] has as its system HepG2. Description: Apoptotic cytotoxicity in human HepG2 cells assessed as caspase-3/7 activity at 30 uM after 24 hrs by caspase-glo-3/7 assay relative to staurosporine. The following applies: hepg2, 24 h. In kind it is cell-based.
A short description of data set [5]: Clearance in fasted Sprague-Dawley rat at 10 mg/kg, po administered as single dose measured up to 24 hrs post dose by LC-PDA-MS/MS analysis. In kind it is ADME, organism-based. Conditions: in vivo.
Data set [6] in a line: Cmax in fasted Sprague-Dawley rat at 10 mg/kg, po administered as single dose measured up to 24 hrs post dose by LC-PDA-MS/MS analysis. In kind it is ADME, organism-based. Further details: dose 10 mg/kg, route oral. Conditions: in vivo.
Data set [7] is described as follows: AUC (0 to 24 hrs) in fasted Sprague-Dawley rat at 10 mg/kg, po administered as single dose measured up to 24 hrs post dose by LC-PDA-MS/MS analysis. Further details: time < 24 hr, dose 10 mg/kg, route oral. The following applies: in vivo. It counts as ADME, organism-based.
Data set [8] is described as follows: Half life in fasted Sprague-Dawley rat at 10 mg/kg, po administered as single dose measured up to 24 hrs post dose by LC-PDA-MS/MS analysis. In kind it is ADME, organism-based. Conditions: in vivo.
Data set [9] is described as follows: Drug metabolism in Sprague-Dawley rat plasma assessed as beta-oxidation metabolite formation at 10 mg/kg, po measured up to 24 hrs post dose by LC-PDA-MS/MS analysis. In kind it is ADME, organism-based. The following applies: in vivo.
Data set [10] is described as follows: Drug metabolism in Sprague-Dawley rat plasma assessed as cytochrome P450-mediated 2'-chlorobiphenyl-3-carboxylic acid formation at 10 mg/kg, po measured up to 24 hrs post dose by LC-PDA-MS/MS analysis. Conditions: in vivo. It counts as ADME, organism-based.
Data set [11] is described as follows: Drug metabolism in Sprague-Dawley rat plasma assessed as 2-(2-(4-((2'-chlorobiphenyl-3-yl)methoxy)phenylsulfonyl)acetamido)ethanesulfonic acid formation at 10 mg/kg, po measured up to 24 hrs post dose by LC-PDA-MS/MS analysis. In kind it is ADME, organism-based. Conditions: in vivo.
A short description of data set [12]: Drug metabolism in Sprague-Dawley rat plasma assessed as (2S,3R,4S,5S,6R)-3,4,5-trihydroxy-6-(hydroxymethyl)tetrahydro-2H-pyran-2-yl 2-(4-((2'-chlorobiphenyl-3-yl)methoxy)phenylsulfonyl)acetate formation at 10 mg/kg, po measured up to 24 hrs post dose by LC-PDA-MS/MS analysis. It counts as ADME, organism-based. The following applies: in vivo.
Data set [13] concerns Rattus norvegicus. Kind of data set: Antidiabetic activity in po dosed Sprague-Dawley rat assessed as reduction in plasma glucose excursion administered as single dose followed by subsequent glucose challenge at 60 mins post administration measured up to 120 mins post dose by OGTT method. In kind it is functional, organism-based.
Data set [14] deals with Rattus norvegicus. Kind of data set: Antidiabetic activity in po dosed Sprague-Dawley rat assessed as increase in insulin secretion administered as single dose followed by subsequent glucose challenge at 60 mins post administration measured up to 120 mins post dose by ELISA. In kind it is functional, organism-based. (In general: In an ELISA, binding on a coated surface is turned into a signal by an enzyme label.)

Data set [15] relates to Rattus norvegicus. Kind of data set: Antidiabetic activity in po dosed Sprague-Dawley rat assessed as reduction in blood glucose AUC (0 to 120 mins) administered as single dose followed by subsequent glucose challenge at 60 mins post administration by OGTT method. In kind it is functional.
The subject of data set [16] is Rattus norvegicus. Kind of data set: Antidiabetic activity in po dosed Sprague-Dawley rat assessed as increase in blood insulin AUC (0 to 120 mins) administered as single dose followed by subsequent glucose challenge at 60 mins post administration by ELISA method. It counts as functional.
Data set [17] has as its system Mus musculus. Description: Antihyperglycemic activity in high fat diet fed/streptozotocin-induced type 2 diabetic C57BL/6 mouse model assessed as reduction in plasma glucose AUC (0 to 120 mins) at 20 mg/kg, po administered as single dose followed by subsequent glucose challenge at 60 mins post administration by OGTT method. In kind it is functional, organism-based.

For data set [18], the system named is Rattus norvegicus. Description: Hypoglycemic effect in fasting Sprague-Dawley rat at 30 mg/kg, po measured up to 180 mins post dose. Conditions: in vivo, 3 h. It counts as ADME, organism-based.
Data set [19] deals with Mus musculus. Kind of data set: Hepatotoxicity in ICR mouse assessed as serum ALT level at 30 mg/kg, dosed daily via oral gavage for 30 days (reference value: 34.7 +/- 5.6 IU/L). It counts as toxicity, organism-based. The following applies: in vivo, 720 h.
Data set [20] deals with Mus musculus. Kind of data set: Hepatotoxicity in ICR mouse assessed as serum AST level at 30 mg/kg, dosed daily via oral gavage for 30 days (reference value: 135.6 +/- 15.2 IU/L). Conditions: in vivo, 720 h. It counts as toxicity, organism-based.
For data set [21], the system named is Mus musculus. Description: Hepatotoxicity in ICR mouse assessed as serum TBIL level at 30 mg/kg, dosed daily via oral gavage for 30 days (reference value: 4.3 +/- 1.3 IU/L). In kind it is toxicity, organism-based. The following applies: in vivo, 720 h.
Data set [22] has as its system Mus musculus. Kind of data set: Renal toxicity in ICR mouse assessed as BUN level at 30 mg/kg, dosed daily via oral gavage for 30 days (reference value: 7.4 +/- 1.6 mmol/L). It counts as organism-based. The following applies: in vivo, 720 h.
Data set [23] relates to Mus musculus. Description: Renal toxicity in ICR mouse assessed as serum creatinine level at 30 mg/kg, dosed daily via oral gavage for 30 days (reference value: 40.9 +/- 2.6 umol/L). In kind it is organism-based. The following applies: in vivo, 720 h.

The source made the active and inactive calls. The rule behind the calls is not given here.

T1 sequence (O14842 whole entry): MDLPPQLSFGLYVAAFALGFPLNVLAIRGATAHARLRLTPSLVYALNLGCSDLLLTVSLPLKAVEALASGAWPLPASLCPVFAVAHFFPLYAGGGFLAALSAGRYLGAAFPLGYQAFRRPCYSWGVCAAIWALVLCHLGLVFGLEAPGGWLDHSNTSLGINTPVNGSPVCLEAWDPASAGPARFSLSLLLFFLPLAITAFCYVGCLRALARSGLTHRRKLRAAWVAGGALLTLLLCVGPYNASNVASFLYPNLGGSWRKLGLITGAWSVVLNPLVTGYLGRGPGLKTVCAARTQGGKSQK

Turning to `O=C(O)CS(=O)(=O)c1ccc(OCc2cccc(-c3ccccc3Cl)c2)cc1`, the EC50 in data set [1] is 28.8 nM. The Efficacy in data set [2] came out at 115%. The compound further gave a pH-dependent lipophilicity (logD) at 24 h, 100 µM in [3] of 2.47. Moreover, the Activity in data set [4] is -1.6%; in data set [13] it was “Dose-dependent effect”; in data set [14] it was “Dose-dependent effect”; in [18], “Non-Toxic”; in [19], 35.4 IU/L; in data set [20] it was 128.2 IU/L. For the same compound, the Activity in [21] stood at 4.1 IU/L; in data set [22], 7.9 mmol/L; in [23], 41.4 µmol/L. In data set [5], this compound showed a CL/F of 2.57 mL/min/kg. Further, in data set [6], the Cmax came to 2560 ng/mL. The AUC(0-t) at 24 h in data set [7] was 30200 ng·h/mL. Further, in data set [8], the half-life is 5.57 h. The Drug metabolism result in [9], in data set [10], in [11] and in data set [12] was “Metabolite_Detected” throughout. The MEC in [15] and in data set [16] was 3 mg/kg each time. The outcome in data set [17] was Active.
